Measurements reported in patent US20140342392A1, “OPTIMIZED INSECT-BASED EX VIVO MODEL FOR TESTING BLOOD-BRAIN BARRIER PENETRATION AND METHOD FOR EXPOSING INSECT BRAIN TO CHEMICAL COMPOUNDS” (ENTOMOPHARM ApS, priority 2011, published 2014).

Tested on: locust brain (blood-brain barrier)
Conditions: co-treatment with verapamil, brain removed from the cuticula, also after removal of the neural lamella
Description: 1. […] The insects may be obtained from local suppliers or bred in house. The grasshoppers were reared under crowded conditions at 28° C. and a 12:12 dark:light photocycle and fed fresh grass and bran. Before experiments the grasshoppers were fed ecologically cultivated wheat for two weeks. Animals used are adult males (in some experiments females) between two to four weeks after adult emergence. […] After various times of exposure the preparation is washed in saline and the brain is dissected under microscope with fine forceps. The neural lamella surrounding the brain is removed in saline and the brain is then […] in saline, centrifuged and the supernatant frozen until analyses. Drug concentration is analysed by HPLC, LC/MSMS or other methods.

In the case of `C=C[C@H]1C[N@@]2CC[C@H]1C[C@@H]2[C@@H](O)c1ccnc2ccc(OC)cc12` [quinidine], the “brain concentration with versus without Pgp inhibitor (FIG. 2)” value is reported as “higher after co-treatment with the Pgp inhibitor verapamil”.
